Measured values from patent publication US20150057349A1 (NESTEC S.A., priority 2012, published 2015).

Assays:
THP-1 blue cells = assay: Cell viability of THP-1 blue cells (Cell Titer-Glo); format: cell-based, human
Experimental: 200000 cells/well were seeded in 100 μl of culture medium in 96 well flat bottom transparent plates. […] 20 μl of culture media containing (or not) LPS 055:B5 (Sigma) (100 ng/ml final) was added and the plates were incubated for 16 hours at 37° C. in a 5% CO2/air incubator.
Cell culture supernatants were carefully transferred to 96 well-plates for NF-κB activity measurement which is proportional to the level of secreted alkaline phosphatase. Briefly, 100 μl of supernatants were mixed with 150 μl of QuantiBlue (Invivogen) in a 96 well-plates incubated for 3 h at 37° C. before OD measurements at 620 nm with Sunrise microplate reader (Tecan, Mannedorf, Switzerland). Cell viability was determined using Cell Titer-Glo kit as described above.

Nrf2 = Nrf2 reporter assay (ARE-luciferase) in AREc32 cells; format: cell-based; settings: 24 hours
Experimental: Activation of Nrf2 was measured using an Nrf2 reporter assay. This assay is based on the AREc32 cell line, from CRX biosciences (Dundee, Scotland), a stably transfected MCF7 (breast adenocarcinoma) cell line that contains a luciferase gene construct under the control of the ARE. […] Anti-oxidative molecules such as Tert-butylhydroquinone (TBHQ) induce luciferase transcription via the activation of Nrf2 that binds to ARE. Luciferase activity is determined using a luciferase kit form Promega (Madison, Wis.). The luciferase activity is proportional to the activation of Nrf2. […] The luciferase activity and the cell viability (ATP measurements) were determined using the Luciferase and Cell Titer-Glo kits from Promega. For each run the luciferase activities, measured in Relative Light Units (RLU), of all the wells were normalized with the mean of the luciferase activity of the cells only of all the plates. […] For each sample the Nrf2 activation was calculated as follows: 1) The Nrf2 fold induction: The Nrf2 fold induction is very useful for screening purposes. […] The luciferase content per sample allows a semi quantification of the Nrf2 activation by reflecting the amount of the Nrf2 activating molecule. […] The cell viability was also measured using a cell Titer-Glo kit (ATP quantification).

HT-29 clone 34 cells = assay: Cell viability of HT-29 clone 34 cells (ATP, Cell Titer-Glo); format: cell-based, human; settings: ATP measurement
Experimental: (§1) 10000 cells/well were seeded in 200 μl of culture medium in flat bottom white border 96 well plates (Greiner Bio One, Kremsmuenster, Austria). […] 20 μl of experimental medium containing (or not) LPS 055:B5 or rhTNF-α (100 and 10 ng/ml final, respectively) was added and the plates were incubated for 24 hours at 37° C. in a 5% CO2/air incubator.
Cell viability was determined by measuring ATP using a Cell Titer-Glo kit (Promega). Briefly, remaining adherent HT-29 clone 34 cells were incubated for 10 min at room temperature under horizontal shaking (250 rpm) with 120 μl of Cell Titer-Glo reagent (pre-diluted twice in 1×PBS) and the luminescence was measured using Polarstar microplate reader (BMG, Offenburg, Germany) for 1000 ms with a gain value set to 3500.

AREc32 cells = assay: Cell viability of AREc32 cells (ATP quantification, Cell Titer-Glo); format: cell-based; settings: 24 hours
Experimental: To determine the Nrf2 activation the samples were tested on AREc32 cells (seeded in 96 well plates) using 10 independent dilutions (½, ¼, ⅙, 1/10, 1/15, 1/20, 1/25, 1/30, 1/40 and 1/50) and incubated for 24 hours at 37° C. in a 5% CO2/air incubator. The luciferase activity and the cell viability (ATP measurements) were determined using the Luciferase and Cell Titer-Glo kits from Promega.
The cell viability was also measured using a cell Titer-Glo kit (ATP quantification).

NF-κB [1] = assay: NF-κB activity (secreted alkaline phosphatase) in THP-1 blue cells; format: cell-based, human; settings: THP-1 blue cells stimulated with LPS
Experimental: Human monocytes/macrophages THP-1 blue cells (passage 16-20) (Invivogen, Toulouse, France) were cultured in modified RPMI medium (ATCC, Manassas, Va.) containing 1 mM of sodium pyruvate, 2 mM of L-glutamine, 4.5 g/L of glucose and 10 mM of HEPES supplemented with 10% of heat inactivated FCS (Bioconcept), 1% of Penicillin/Streptomycin (Sigma) and 500 μg/ml of Zeocin (Invivogen) at 37° C. in a 5% CO2/air incubator. 200000 cells/well were seeded in 100 μl of culture medium in 96 well flat bottom transparent plates. […] 20 μl of culture media containing (or not) LPS 055:B5 (Sigma) (100 ng/ml final) was added and the plates were incubated for 16 hours at 37° C. in a 5% CO2/air incubator. Cell culture supernatants were carefully transferred to 96 well-plates for NF-κB activity measurement which is proportional to the level of secreted alkaline phosphatase. Briefly, 100 μl of supernatants were mixed with 150 μl of QuantiBlue (Invivogen) in a 96 well-plates incubated for 3 h at 37° C. before OD measurements at 620 nm with Sunrise microplate reader (Tecan, Mannedorf, Switzerland). Cell viability was determined using Cell Titer-Glo kit as described above.

NF-κB [2] = assay: NF-κB activity (SEAP and IL-8 production) in HT-29 clone 34 cells; format: cell-based, human
Experimental: The human colonic adenocarcinoma HT-29 clone 34 cell line (passage 42-50) are adherent cells stably transfected with a NF-κB/SEAP reporter plasmid. They were cultured in DMEM high glucose (4.5 g/L) (Invitrogen) containing 1% of stable L-glutamine and supplemented with 10% of heat inactivated (one hour at 56° C.) Foetal Calf Serum (FCS) (Bioconcept, Allschwil, Switzerland), 1% of Penicillin/Streptomycin (Sigma) and 500 μg/ml of Geneticin (PAA, Pasching, Austria) at 37° C. in a 5% CO2/air incubator. Culture medium was renewed every two days until the cell monolayer reached ˜90% confluence. Cells were sub-cultured using 1× Trypsin/EDTA (Sigma).
as §1
Cell culture supernatants were then collected for measurement of NF-κB activity (determination of secreted alkaline phosphatase and IL-8 production) using Phosphalight (Applied Biosystems) and IL-8 singleplex (Meso Scale, Gaithersburg, Md.) kits, respectively.

[3] = HT-29 clone 34 cells stimulated with LPS

## CC(=O)/C=C/C(=O)O [4-oxo-2-pentenoic acid]
THP-1 blue cells
  Doses toxic to cells: higher than 75 μM
Nrf2
  Nrf2 activation (in words): strongly activate Nrf2 in a dose dependent manner
Nrf2; dose range 0 to 200 μM
  Optimal dose of Nrf2 activation: 40 to 50 µM
HT-29 clone 34 cells
  Doses giving a decrease in cell viability of HT-29 clone 34 cells: > 50 µM
AREc32 cells
  Doses at which viability of AREc32 cells was not affected: lower than 70 μM
NF-κB [1]
  Doses giving strong NF-κB inhibition: 40 to 75 µM
NF-κB [2]; [3]
  Dose giving the best inhibition of SEAP and IL-8 secretion: 50 µM
  Inhibition of NF-κB activity (in words): inhibits NF-κB activity in a dose dependent manner
NF-κB [2]; HT-29 clone 34 cells, no LPS, doses tested 3 to 400 μM
  NF-κB activity (SEAP or IL-8) in the absence of LPS: no NF-κB activity was observed
